Source: patent US20240130368A1, “HERBICIDAL COMPOSITION” (Nippon Soda Co., Ltd., priority 2021, published 2024)
Read-outs that look alike come from different tables or passages of the source.

Tested on: Ambrosia artemisiifolia
Experiment: Test Example 1: seeds on filter paper moistened with chemical solution, herbicidal effect visually evaluated
Assay type: in vivo
Details: visually evaluated 6 days after treatment
Method: As the compound (1), 1-methoxy-3-methyl-6-(1,1-dioxido-8-(trifluoromethyl)thiochroman-5-yl)-7-oxa-3,4-diazabicyclo[4.1.0]hept-4-en-2-one (Compound (I-3)) was used.
The compound (I) or compound (II) was prepared into a 5% emulsion using DMF (containing 1.5% Tween) and diluted with water to a prescribed dosage concentration. Commercially available preparations were dissolved in water and adjusted to a prescribed dosage concentration.
Seeds were soaked in 0.6% sodium hypochlorite for a predetermined time for surface sterilization and washed with water for use (seed disinfection). Seeds of Ambrosia artemisiifolia were used for the test.
Filter paper was placed on a cup (diameter: 10 cm, height: 4 cm) with a lid and moistened with 8 ml of chemical solution, and seeds were sown thereon, and after covering with a lid, grown in a constant temperature room.
The herbicidal effects were visually evaluated, 6 days after the treatment, as the herbicidal effect (%), by comparing with a state of an untreated group using a total of 21 scores of withering index from 0 to 20 (0: mortality rate equivalent to that of the untreated group, 20: mortality rate of 100%).
In addition, the expected values of the herbicidal effects were calculated from the herbicidal effects in a case where the compound (I) alone was applied and the herbicidal effects in a case where the compound (II) alone was applied by using the Colby's formula (Colby, S. R., Calculating synergistic and antagonistic responses of herbicide combinations, Weeds, 15, pp. 20-22 (1967)).
M indicates an herbicidal effect (%) in the application of the compound (I) alone, N indicates an herbicidal effect (%) in the application of the compound (II) alone, and E indicates an expected value (%) of the herbicidal effect in the combined application of the compound (T) and the compound (TT). When the actual measured value (%) of the herbicidal effect in the combined application of the compound (I) and the compound (II) is greater than the expected value E, it can be regarded that the combined application of the compound (I) and the compound (II) has a synergistic effect.

[1] = Ambrosia artemisiifolia, 144 h, compound applied alone, amount of active ingredient 3.1 ppm, read-out: Herbicidal effect (%)
[2] = applied alone, amount of active ingredient 0.8 ppm
[3] = Ambrosia artemisiifolia, 144 h, compound applied alone, amount of active ingredient 0.8 ppm, read-out: Herbicidal effect (%)
[4] = Ambrosia artemisiifolia, 144 h, applied alone, amount of active ingredient 50 ppm, read-out: Herbicidal effect (%)
[5] = Ambrosia artemisiifolia, 144 h, read-out: Herbicidal effect (%), applied alone, amount of active ingredient 12.5 ppm
[6] = Ambrosia artemisiifolia, 144 h, applied alone, amount of active ingredient 0.2 ppm, read-out: Herbicidal effect (%)
[7] = compound applied alone, amount of active ingredient 12.5 ppm
[8] = Ambrosia artemisiifolia, 144 h, applied alone, amount of active ingredient 0.8 ppm, read-out: Herbicidal effect (%)
[9] = Ambrosia artemisiifolia, 144 h, compound applied alone, amount of active ingredient 0.2 ppm, read-out: Herbicidal effect (%)
[10] = Ambrosia artemisiifolia, 144 h, applied alone, amount of active ingredient 12.5 ppm, read-out: Herbicidal effect (%)
[11] = Ambrosia artemisiifolia, 144 h, compound applied alone, amount of active ingredient 0.012 ppm
[12] = compound applied alone, amount of active ingredient 0.2 ppm

2,4-D amine
Herbicidal effect (%) (applied alone, amount of active ingredient 0.05 ppm): 20%

Cc1ccccc1CO[C@@H]1C[C@@]2(C(C)C)CC[C@]1(C)O2 (racemic) [Cinmethylin]
pest or weed control at 3.1 ppm [1]: 50%

CCCCC(CC)COC(=O)COc1ccc(Cl)cc1Cl (stereo not drawn) [2,4-D 2-ethylhexyl ester]
Herbicidal effect (%) [2]: 50%

Nc1c([N+](=O)[O-])ccc(Oc2ccccc2)c1Cl [Aclonifen]
pest or weed control at 50 ppm (Ambrosia artemisiifolia, 144 h, compound applied alone, amount of active ingredient 50 ppm, read-out: Herbicidal effect (%)): 20%

CCc1cccc(CC)c1N(COC)C(=O)CCl [Alachlor]
pest or weed control at 0.8 ppm [3]: 20%

CC(C)c1nn(C(=O)NC(C)(C)C)c(=O)n1N [Amicarbazone]
Herbicidal effect (%) (applied alone, amount of active ingredient 50 ppm): 0%

Nc1nc[nH]n1 [Amitrole]
pest or weed control at 3.1 ppm [1]: 20%

COC(=O)NS(=O)(=O)c1ccc(N)cc1 [Asulam]
pest or weed control at 3.1 ppm [1]: 20%

CC(C)N1C(=O)c2ccccc2NS1(=O)=O [Bentazon]
pest or weed control at 200 ppm (Ambrosia artemisiifolia, 144 h, applied alone, amount of active ingredient 200 ppm): 20%

N#Cc1cc(Br)c(O)c(Br)c1 [Bromoxynil]
pest or weed control at 3.1 ppm (Ambrosia artemisiifolia, 144 h, applied alone, amount of active ingredient 3.1 ppm, read-out: Herbicidal effect (%)): 0%

CCOC(=O)C(Cl)Cc1cc(-n2nc(C)n(C(F)F)c2=O)c(F)cc1Cl (stereo not drawn) [Carfentrazone-ethyl]
pest or weed control at 0.8 ppm (Ambrosia artemisiifolia, 144 h, read-out: Herbicidal effect (%), applied alone, amount of active ingredient 0.8 ppm): 50%

Cc1ccc(NC(=O)N(C)C)cc1Cl [Chlorotoluron]
pest or weed control at 50 ppm [4]: 40%

CCSC(C)CC1CC(=O)C(/C(CC)=N/OC/C=C/Cl)=C(O)C1 (stereo not drawn) [Clethodim]
pest or weed control at 12.5 ppm [5]: 0%

CC1(C)CON(Cc2ccccc2Cl)C1=O [Clomazone]
pest or weed control at 0.2 ppm [6]: 10%

Cc1cccc(C2CC2)c1Oc1nnc(Cl)cc1OC(=O)N1CCOCC1 [Cyclopyrimorate]
Herbicidal effect (%) [7]: 40%

COc1c(Cl)ccc(Cl)c1C(=O)O [Dicamba]
pest or weed control at 0.8 ppm [8]: 30%

O=C(Nc1ccc(F)cc1F)c1cccnc1Oc1cccc(C(F)(F)F)c1 [Diflufenican]
pest or weed control at 0.2 ppm [9]: 10%

C/C(=N\NC(=O)Nc1cc(F)cc(F)c1)c1ncccc1C(=O)[O-].[Na+] [Diflufenzopyr-sodium]
Herbicidal effect (%) [7]: 20%

COC[C@H](C)N(C(=O)CCl)c1c(C)csc1C [Dimethenamid-P]
Herbicidal effect (%) (compound applied alone, amount of active ingredient 0.8 ppm): 30%

c1cc[n+]2c(c1)-c1cccc[n+]1CC2 [Diquat]
pest or weed control at 0.2 ppm (Ambrosia artemisiifolia, 144 h, read-out: Herbicidal effect (%), compound applied alone, amount of active ingredient 0.2 ppm): 30%

CCOC(=O)COc1ncccc1Oc1cc(-n2c(=O)cc(C(F)(F)F)n(C)c2=O)c(F)cc1Cl [Epyrifenacil]
Herbicidal effect (%) (compound applied alone, amount of active ingredient 0.0125 ppm): 80%

Cc1ccn2nc(S(=O)(=O)Nc3c(F)cccc3F)nc2n1 [Flumetsulam]
pest or weed control at 12.5 ppm [10]: 40%

C#CCN1C(=O)COc2cc(F)c(N3C(=O)C4=C(CCCC4)C3=O)cc21 [Flumioxazin]
pest or weed control at 0.05 ppm (Ambrosia artemisiifolia, 144 h, applied alone, amount of active ingredient 0.05 ppm, read-out: Herbicidal effect (%)): 80%

NC(=O)c1nc(-c2ccccc2)n(-c2ccc(Cl)c(COCC(F)(F)C(F)(F)F)c2)n1 [Flupoxam]
pest or weed control at 0.012 ppm [11]: 65%

Nc1c(Cl)c(F)nc(OCC(=O)O)c1Cl [Fluroxypyr]
pest or weed control at 0.8 ppm [8]: 40%

COc1cc(OC)nc(NC(=O)NS(=O)(=O)c2cc(NC=O)ccc2C(=O)N(C)C)n1 [Foramsulfuron]
pest or weed control at 0.8 ppm [8]: 65%

CP(=O)(O)CCC(N)C(=O)O (stereo not drawn) [Glufosinate-ammonium]
pest or weed control at 12.5 ppm [5]: 20%

O=C(O)CNCP(=O)(O)O [Glyphosate]
pest or weed control at 12.5 ppm [5]: 20%

COC(=O)c1nc(-c2ccc(Cl)c(OC)c2F)cc(N)c1Cl [Halauxifen-methyl]
Herbicidal effect (%) (compound applied alone, amount of active ingredient 0.012 ppm): 70%

COC(=O)c1c(Cl)nn(C)c1S(=O)(=O)NC(=O)Nc1nc(OC)cc(OC)n1 [Halosulfuron-methyl]
pest or weed control at 0.05 ppm (Ambrosia artemisiifolia, 144 h, read-out: Herbicidal effect (%), compound applied alone, amount of active ingredient 0.05 ppm): 30%

COC(=O)C(C)Oc1ccc(Oc2ncc(C(F)(F)F)cc2Cl)cc1 (stereo not drawn) [Haloxyfop-methyl]
pest or weed control at 12.5 ppm [5]: 10%

CN(C)c1nc(=O)n(C2CCCCC2)c(=O)n1C [Hexazinone]
pest or weed control at 3.1 ppm [1]: 10%

CCC(C)(CC)c1cc(NC(=O)c2c(OC)cccc2OC)on1 [Isoxaben]
pest or weed control at 0.2 ppm [9]: 75%

CS(=O)(=O)c1cc(C(F)(F)F)ccc1C(=O)c1cnoc1C1CC1 [Isoxaflutole]
pest or weed control at 0.0125 ppm (Ambrosia artemisiifolia, 144 h, compound applied alone, amount of active ingredient 0.0125 ppm): 40%

CON(C)C(=O)Nc1ccc(Cl)c(Cl)c1 [Linuron]
pest or weed control at 12.5 ppm (Ambrosia artemisiifolia, 144 h, compound applied alone, amount of active ingredient 12.5 ppm, read-out: Herbicidal effect (%)): 10%

Cc1cc(Cl)ccc1OCC(=O)O [MCPA]
Herbicidal effect (%) (applied alone, amount of active ingredient 0.2 ppm): 30%

CS(=O)(=O)c1ccc(C(=O)C2C(=O)CCCC2=O)c([N+](=O)[O-])c1 [Mesotrione]
pest or weed control at 0.2 ppm [9]: 50%

CCc1cccc(C)c1N(C(=O)CCl)C(C)COC (stereo not drawn) [Metolachlor]
pest or weed control at 0.8 ppm [3]: 10%

CSc1nnc(C(C)(C)C)c(=O)n1N [Metribuzin]
pest or weed control at 50 ppm [4]: 0%

COc1cc(OC)nc(NC(=O)NS(=O)(=O)c2ncccc2C(=O)N(C)C)n1 [Nicosulfuron]
pest or weed control at 0.8 ppm [3]: 60%

CCC(CC)Nc1c([N+](=O)[O-])cc(C)c(C)c1[N+](=O)[O-] [Pendimethalin]
pest or weed control at 0.8 ppm [8]: 20%

Nc1c(Cl)c(Cl)nc(C(=O)O)c1Cl [Picloram]
pest or weed control at 0.8 ppm [8]: 70%

O=C(Nc1ccc(F)cc1)c1cccc(Oc2cccc(C(F)(F)F)c2)n1 [Picolinafen]
Herbicidal effect (%) (applied alone, amount of active ingredient 3.1 ppm): 30%

CCCN(CCC)C(=O)SCc1ccccc1 [Prosulfocarb]
pest or weed control at 0.8 ppm [8]: 20%

FC(F)c1cc(-c2c(Cl)cccc2Oc2ncc(Cl)cn2)on1 [Rimisoxafen]
Herbicidal effect (%) [12]: 25%

CCS(=O)(=O)c1cccnc1S(=O)(=O)NC(=O)Nc1nc(OC)cc(OC)n1 [Rimsulfuron]
pest or weed control at 0.2 ppm [6]: 20%

CC(C)N(C)S(=O)(=O)NC(=O)c1cc(-n2c(=O)cc(C(F)(F)F)n(C)c2=O)c(F)cc1Cl [Saflufenacil]
pest or weed control at 0.0125 ppm (Ambrosia artemisiifolia, 144 h, applied alone, amount of active ingredient 0.0125 ppm): 60%

CCC/C(=N\OCC)C1=C(O)CC(CC(C)SCC)CC1=O (stereo not drawn) [Sethoxydim]
pest or weed control at 0.8 ppm (Ambrosia artemisiifolia, 144 h, read-out: Herbicidal effect (%), compound applied alone, amount of active ingredient 0.8 ppm): 0%

CCNc1nc(Cl)nc(NCC)n1 [Simazine]
pest or weed control at 50 ppm [4]: 30%

Cc1nn(-c2cc(NS(C)(=O)=O)c(Cl)cc2Cl)c(=O)n1C(F)F [Sulfentrazone]
pest or weed control at 0.012 ppm [11]: 0%

CNC(=O)N(C)c1nnc(C(C)(C)C)s1 [Tebuthiuron]
pest or weed control at 50 ppm (Ambrosia artemisiifolia, 144 h, read-out: Herbicidal effect (%), compound applied alone, amount of active ingredient 50 ppm): 20%

CC/C(=N\OC/C=C/Cl)C1=C(O)CC(C2CCOCC2)CC1=O (stereo not drawn) [Tepraloxydim]
pest or weed control at 3.1 ppm (Ambrosia artemisiifolia, 144 h, read-out: Herbicidal effect (%), compound applied alone, amount of active ingredient 3.1 ppm): 10%

CCNc1nc(Cl)nc(NC(C)(C)C)n1 [Terbuthylazine]
pest or weed control at 50 ppm [4]: 0%

CN1C[C@H](c2cccc(C(F)(F)F)c2)[C@@H](C(=O)Nc2ccccc2F)C1=O [Tetflupyrolimet]
Herbicidal effect (%) (compound applied alone, amount of active ingredient 3.1 ppm): 70%

COC(=O)c1csc(C)c1S(=O)(=O)NC(=O)n1nc(OC)n(C)c1=O [Thiencarbazone-methyl]
Herbicidal effect (%) [2]: 30%

Cc1c(C(=O)c2cnn(C)c2O)ccc(S(C)(=O)=O)c1C1=NOCC1 [Topramezone]
Herbicidal effect (%) [12]: 40%

CC(C)N(C(=O)SCC(Cl)=C(Cl)Cl)C(C)C [Tri-allate]
pest or weed control at 12.5 ppm [10]: 20%
